Results on 14 compounds are retold here after ChEMBL document CHEMBL3407368, “Further studies on anti-invasive chemotypes: An excursion from chalcones to curcuminoids” (Bioorg Med Chem Lett, 2015).

Data set [1] can be described thus: Antiinvasive activity against human MCF7/6 cells precultured with 9 day old chick embryo heart tissue fragment assessed as lowest concentration by chick heart invasion assay. Type of data set: functional.
For data set [2], the system named is MCF7/6. Description: Antiinvasive activity against human MCF7/6 cells precultured with 9 day old chick embryo heart tissue fragment at 100 micromol/l by chick heart invasion assay. Type of data set: functional, cell-based.
Data set [3] deals with MCF7/6. Description: Antiinvasive activity against human MCF7/6 cells precultured with 9 day old chick embryo heart tissue fragment at 10 micromol/l by chick heart invasion assay. Type of data set: functional, cell-based.
For data set [4], the system named is MCF7/6. In words: Antiinvasive activity against human MCF7/6 cells precultured with 9 day old chick embryo heart tissue fragment at 1 micromol/l by chick heart invasion assay. Format: functional, cell-based.
Data set [5] deals with MCF7/6. In words: Antiinvasive activity against human MCF7/6 cells precultured with 9 day old chick embryo heart tissue fragment at 0.1 micromol/l by chick heart invasion assay. Type of data set: functional, cell-based.
In data set [6] the test system is MCF7/6. In words: Antiinvasive activity against human MCF7/6 cells precultured with 9 day old chick embryo heart tissue fragment at 0.01 micromol/l by chick heart invasion assay. Type of data set: functional, cell-based.
Data set [7] is described as follows: Cytotoxicity against human MCF7/6 cells at 100 umol/l. Format: cell-based. The conditions noted are these: mcf7/6, 100 µM.
Data set [8] in a line: Cytotoxicity against human MCF7/6 cells at 10 umol/l. Format: cell-based. The following applies: mcf7/6, 10 µM.

Each structure is given as a SMILES string. Active and inactive are the calls of the source. The calls are words filed in the database; no cut-off is given here.

For `COc1cc(/C=C/c2ccc(F)cc2)cc(OC)c1OC`, the logMIC in data set [1] came to 0.

For the compound `O=C(/C=C/C=C/c1ccccc1)/C=C/c1ccccc1`, the result with MCF7/6 [2], with MCF7/6 [3] and in the data set on MCF7/6 [4] was Active. The result in the data set on MCF7/6 [5] and in the data set on MCF7/6 [6] was inactive. In data set [1], the logMIC is on record as 0. Also, in data set [7], the Activity result was “Toxic”.

Turning to `COc1cc(/C=C/C(=O)CC(=O)/C=C/c2ccc(O)c(OC)c2)ccc1O` [CURCUMIN], the outcome in the data set with MCF7/6 [3] was Active. Moreover, the result in the data set on MCF7/6 [4] and in the data set on MCF7/6 [5] was inactive. For the same compound, the logMIC in data set [1] stood at 1.

`C(=C\c1ccccc1)/c1ccccc1`: the logMIC in data set [1] was -1.

With `COc1cc(C(=O)/C=C/c2ccc(F)cc2)cc(OC)c1OC`, the outcome in the data set with MCF7/6 [3], in the data set on MCF7/6 [4], in the data set with MCF7/6 [5] and in the data set on MCF7/6 [6] was Active. Besides, in data set [1], the logMIC is recorded as -2. Further, the Activity result in data set [8] is reported as “Non-toxic”.

Take `O=C(/C=C/c1ccc(O)cc1)CC(=O)/C=C/c1ccc(O)cc1` [BISDEMETHOXYCURCUMIN]: the outcome with MCF7/6 [3] was Active. In addition, the result with MCF7/6 [4] and with MCF7/6 [5] was inactive. Besides, in data set [1], the logMIC is listed as 1. Besides, the Activity result in data set [8] is recorded as “Toxic”.

Consider `O=C(/C=C/C=C/c1ccccc1)c1ccc(Cl)cc1`, for which the result in the data set with MCF7/6 [2] and in the data set with MCF7/6 [4] was Active. The result in the data set with MCF7/6 [3] and in the data set on MCF7/6 [5] was inactive. In addition, the logMIC in data set [1] turned out to be 3.

With `O=C(/C=C/C=C/c1ccccc1)c1ccccc1`, the result in the data set on MCF7/6 [2] was Active. The outcome in the data set with MCF7/6 [3], in the data set with MCF7/6 [4] and with MCF7/6 [5] was inactive. Further, the logMIC in data set [1] came out at 2. Besides, the Activity entry in data set [7] and in data set [8] was “Toxic” in each case.

Turning to `COc1cc(C(=O)/C=C/C=C/c2ccccc2)cc(OC)c1OC`, the result with MCF7/6 [2] and with MCF7/6 [3] was Active. For the same compound, the result in the data set on MCF7/6 [4], with MCF7/6 [5] and in the data set on MCF7/6 [6] was inactive. The logMIC in data set [1] came to 1. Besides, the Activity result in data set [7] and in data set [8] was “Toxic” throughout.

In the case of `O=C(/C=C/C=C/c1ccccc1)c1ccc(F)cc1`, the outcome in the data set with MCF7/6 [2] and in the data set on MCF7/6 [4] was Active. In addition, the outcome in the data set on MCF7/6 [5] and in the data set on MCF7/6 [6] was inactive. For the same compound, in data set [1], the logMIC worked out at 0. In addition, the Activity result in data set [7] and in data set [8] was “Toxic” throughout.

Turning to `O=C(/C=C/c1ccccc1)/C=C/c1ccccc1`, the result with MCF7/6 [2], in the data set with MCF7/6 [3] and in the data set with MCF7/6 [4] was Active. Further, the outcome with MCF7/6 [5] and with MCF7/6 [6] was inactive. Further, in data set [1], the logMIC is listed as 0. Also, the Activity result in data set [7] is “Toxic”.

For `O=C(/C=C/c1ccccc1)c1ccccc1` [CHALCONE], the result in the data set with MCF7/6 [3] was Active. Further, the outcome with MCF7/6 [4] was inactive. For the same compound, the logMIC in data set [1] was determined as 1.

With `COc1cc(/C=C\c2ccc(F)cc2)cc(OC)c1OC`, the logMIC in data set [1] is reported as 1.

Regarding `COc1cc(C(=O)/C=C/C=C/c2ccc(F)cc2)cc(OC)c1OC`, the result in the data set with MCF7/6 [3] was Active. The outcome with MCF7/6 [4] and in the data set with MCF7/6 [5] was inactive. In addition, the logMIC in data set [1] amounted to 1. For the same compound, the Activity entry in data set [8] was “Toxic”.
